This passage reports IC50 results from US12178791B2, “Haloallylamine sulfone derivative inhibitors of lysyl oxidases and uses thereof” (Syntara Limited, priority 2018, dated 2024).

Common to all, as to assay type: biochemical
In assay [1] the target is LOXL2 (Homo sapiens (Human), UniProt Q9Y4K0). As to the kind of experiment: LOXL2 inhibition, Amplex Red oxidation assay. Particulars: 30 min preincubation at 37 °C, putrescine substrate. The text has this:
(§1) Lysyl oxidase (LOX) is an extracellular copper dependent enzyme which oxidizes peptidyl lysine and hydroxylysine residues in collagen and lysine residues in elastin to produce peptidyl alpha-aminoadipic-delta-semialdehydes. […] There are five LOX family members; these are LOX, LOXL1, LOXL2, LOXL3 and LOXL4. LOX and LOXL family members can be acquired as recombinant active proteins from commercial sources, or extracted from animal tissues like bovine aorta, tendons, pig skin; or prepared from cell cultures. The inhibitory effects of the compounds of the present invention were tested against the given LOX-LOXL preparation using a method based on the detection of hydrogen peroxide with an Amplex Red oxidation assay (Zhou et al. A stable nonfluorescent derivative of resorufin for the fluorometric determination of trace hydrogen peroxide: applications in detecting the activity of phagocyte NADPH oxidase and other oxidases. Anal. Biochem. 1997; 253, 162-168). The assay was developed using either 384 or 96 well format. Briefly, in a standard black, clear bottom 384 well plate assay 25 μL of a dilution of any of the isoenzymes and orthologues in 1.2 M urea, 50 mM sodium borate buffer (pH 8.2) were added into each well in the presence of 1 μM mofegiline and 0.5 mM pargyline (to inhibit SSAO and MAO-B and MAO-A, respectively; not necessary if the enzyme is from a recombinant or purified form). Test compounds were dissolved in DMSO and tested in a Concentration Response Curve (CRC) with 11 data points, typically in the micromolar or nanomolar range after incubation with the enzyme for 30 min at 37° C. Twenty five μL of a reaction mixture containing twice the KM concentration of putrescine (Sigma Aldrich, e.g. 20 mM for LOX, or 10 mM for LOXL2 and LOXL3), 120 μM Amplex Red (Sigma Aldrich) and 1.5 U/mL horseradish peroxidase (Sigma Aldrich) prepared in 1.2 M urea, 50 mM sodium borate buffer (pH 8.2) were then added to the corresponding wells. The above volumes were doubled in the case of 96 wells plate. The fluorescence (RFU) was read every 2.5 min for 30 min at […] 37° C., excitation 565 nm and emission 590 (Optima; BMG labtech). The slope of the kinetics for each well was calculated using MARS data analysis software (BMG labtech) and this value was used to deduce the IC50 value (Dotmatics).

In assay [2] the target is Bovine LOX (Bos taurus (Bovine), UniProt P33072). The experiment in a line: LOX inhibition, Amplex Red oxidation assay. Particulars: 30 min preincubation at 37 °C, putrescine substrate.
Chain of Bovine LOX (P33072 170-418): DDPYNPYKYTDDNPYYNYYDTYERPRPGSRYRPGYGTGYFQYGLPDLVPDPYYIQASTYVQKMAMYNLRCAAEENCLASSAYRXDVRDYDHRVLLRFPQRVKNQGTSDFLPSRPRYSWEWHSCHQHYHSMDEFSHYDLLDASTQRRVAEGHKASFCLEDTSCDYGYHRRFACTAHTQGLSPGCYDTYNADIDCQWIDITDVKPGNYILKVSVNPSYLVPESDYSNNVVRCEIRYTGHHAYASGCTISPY
From the text: as §1, with “Test compounds were dissolved in DMSO and tested in a Concentration Response Curve (CRC) with 11 data points, typically in the micromolar or nanomolar range after incubation with the enzyme for 30 min at 37° C.” left out

The target of assay [3] is Human recombinant SSAO/VAP-1 (Homo sapiens (Human), UniProt Q16853). The experiment in a line: Inhibition of human recombinant SSAO/VAP-1. To be noted: 30 min preincubation at 37 °C, benzylamine 600 μM; read-out: SSAO/VAP-1 Activity IC50. As for the experimental part:
Human recombinant SSAO/VAP-1 amine oxidase activity was determined using the coupled colorimetric method as described for monoamine oxidase, copper-containing amine oxidases and related enzymes (Holt A. and Palcic M., A peroxidase-coupled continuous absorbance plate-reader assay for flavin monoamine oxidases, copper-containing amine oxidases and related enzymes. Nat Protoc 2006; 1: 2498-2505). Briefly, a cloned cDNA template corresponding to residues 34-763 of human SSAO/VAP-1, and incorporating a mouse Ig kappa (κ) signal sequence, N-terminal flag epitope tag and tobacco etch virus (TEV) cleavage site, was assembled in a mammalian expression vector (pLO-CMV) by Geneart AG. This vector containing human SSAO/VAP-1 residues was transfected into CHO-Kl glycosylation mutant cell line, Lec 8. A clone stably expressing human SSAO/VAP-1 was isolated and cultured in large scale. Active human SSAO/VAP-1 was purified and recovered using immunoaffinity chromatography. This was used as the source for SSAO/VAP-1 activity. A high-throughput colorimetric assay was developed using either 96 or 384 well format. Briefly, in a standard 96 well plate assay 50 μL of purified human SSAO/VAP-1 (0.25 μg/mL) in 0.1 M sodium phosphate buffer (pH 7.4) was added into each well. Test compounds were dissolved in DMSO and tested in a Concentration Response Curve (CRC) with 4-11 data points, typically in the micromolar or nanomolar range after incubation with human SSAO/VAP-1 for 30 min at 37° C. After 30 min incubation, 50 μL of the reaction mixture containing 600 μM benzylamine (Sigma Aldrich), 120 μM Amplex Red (Sigma Aldrich) and 1.5 U/mL horseradish peroxidase (Sigma Aldrich) prepared in 0.1 M sodium phosphate buffer (pH 7.4) were added to the corresponding well. The fluorescence unit (RFU) was read every 2.5 min for 30 min at 37° C. excitation 565 nm and emission 590 (Optima; BMG labtech). The slope of the kinetics for each well was calculated using MARS data analysis software (BMG labtech) and this value was used to deduce the IC50 value (Dotmatics).

Structures can show the parent of a compound that is named as a salt. Where only a bound is given, the exact number is not on record here.

Chain of LOXL2 (Q9Y4K0 26-774): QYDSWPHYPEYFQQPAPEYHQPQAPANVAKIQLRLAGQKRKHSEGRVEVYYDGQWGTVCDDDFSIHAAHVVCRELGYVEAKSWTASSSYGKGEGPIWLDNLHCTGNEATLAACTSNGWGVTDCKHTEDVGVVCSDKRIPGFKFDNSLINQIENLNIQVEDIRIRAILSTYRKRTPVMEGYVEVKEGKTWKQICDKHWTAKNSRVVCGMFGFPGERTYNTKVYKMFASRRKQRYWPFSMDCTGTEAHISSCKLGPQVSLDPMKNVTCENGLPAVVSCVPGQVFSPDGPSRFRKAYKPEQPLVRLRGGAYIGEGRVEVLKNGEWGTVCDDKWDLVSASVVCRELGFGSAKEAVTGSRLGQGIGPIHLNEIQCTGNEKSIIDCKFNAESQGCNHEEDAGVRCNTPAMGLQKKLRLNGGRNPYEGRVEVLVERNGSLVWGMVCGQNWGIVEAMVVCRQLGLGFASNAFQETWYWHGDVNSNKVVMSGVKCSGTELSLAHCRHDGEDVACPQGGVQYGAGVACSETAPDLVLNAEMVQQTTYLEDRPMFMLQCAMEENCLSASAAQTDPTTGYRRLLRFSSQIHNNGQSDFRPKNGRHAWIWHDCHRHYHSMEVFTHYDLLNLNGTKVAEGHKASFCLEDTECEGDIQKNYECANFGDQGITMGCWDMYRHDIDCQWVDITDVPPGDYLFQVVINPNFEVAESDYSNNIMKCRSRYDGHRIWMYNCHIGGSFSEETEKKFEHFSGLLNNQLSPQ
Chain of Human recombinant SSAO/VAP-1 (Q16853 34-763): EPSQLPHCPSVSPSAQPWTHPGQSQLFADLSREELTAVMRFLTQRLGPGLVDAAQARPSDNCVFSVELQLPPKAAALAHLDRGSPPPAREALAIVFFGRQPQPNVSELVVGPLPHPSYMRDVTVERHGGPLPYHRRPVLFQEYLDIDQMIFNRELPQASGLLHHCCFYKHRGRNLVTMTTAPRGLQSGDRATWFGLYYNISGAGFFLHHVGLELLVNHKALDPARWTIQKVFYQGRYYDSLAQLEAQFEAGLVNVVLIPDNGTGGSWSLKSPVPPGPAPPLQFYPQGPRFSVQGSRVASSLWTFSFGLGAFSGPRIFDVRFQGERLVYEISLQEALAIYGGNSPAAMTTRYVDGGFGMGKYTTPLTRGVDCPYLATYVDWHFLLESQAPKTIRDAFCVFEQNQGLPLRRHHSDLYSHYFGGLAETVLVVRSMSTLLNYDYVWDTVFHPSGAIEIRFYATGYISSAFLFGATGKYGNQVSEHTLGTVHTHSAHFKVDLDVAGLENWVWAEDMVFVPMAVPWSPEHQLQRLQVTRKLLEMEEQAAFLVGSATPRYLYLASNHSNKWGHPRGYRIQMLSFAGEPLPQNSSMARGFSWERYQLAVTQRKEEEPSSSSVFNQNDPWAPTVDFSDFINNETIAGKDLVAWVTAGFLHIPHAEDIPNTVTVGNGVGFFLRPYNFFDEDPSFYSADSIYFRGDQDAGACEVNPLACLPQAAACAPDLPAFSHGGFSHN

`NC/C=C(\F)CS(=O)(=O)c1ccccc1-c1ccccc1` [Compound 20, (Z)-4-(biphenyl-2-ylsulfonyl)-3-fluorobut-2-en-1-amine hydrochloride]: the results for the IC50 in assay [1] and in assay [2] were under 1 µM and under 10 µM, respectively. Taken in the same sequence, the figures for `CC(C)c1ccccc1S(=O)(=O)C/C(F)=C/CN` [Compound 21, (Z)-3-fluoro-4-(2-isopropylphenylsulfonyl)but-2-en-1-amine hydrochloride] were under 1 µM and under 10 µM. Taken in the same sequence, the figures for `COc1ccccc1S(=O)(=O)C/C(F)=C/CN` [Compound 22, (Z)-3-fluoro-4-(2-methoxyphenylsulfonyl)but-2-en-1-amine hydrochloride] were under 1 µM and under 10 µM. Taken in the same sequence, the figures for `NC/C=C(\F)CS(=O)(=O)c1ccc2ccccc2c1` [Compound 24, (Z)-3-fluoro-4-(naphthalen-2-ylsulfonyl)but-2-en-1-amine hydrochloride] were under 1 µM and under 10 µM. For `NC/C=C(\F)CS(=O)(=O)c1ccc(Cl)cc1Cl` [Compound 25, (Z)-4-(2,4-dichlorophenylsulfonyl)-3-fluorobut-2-en-1-amine hydrochloride], the IC50 in assay [1] is under 1 µM; in assay [2], under 10 µM. As for `NC/C=C(\F)CS(=O)(=O)c1cccc(Cl)c1` [Compound 26, (Z)-4-(3-chlorophenylsulfonyl)-3-fluorobut-2-en-1-amine hydrochloride], the IC50 is under 1 µM in assay [1] and under 10 µM in assay [2].

For `NC/C=C(\F)CS(=O)(=O)c1ccc(Cl)cc1` [Compound 27, (Z)-4-(4-chlorophenylsulfonyl)-3-fluorobut-2-en-1-amine hydrochloride], the results for the IC50 in assay [1] and in assay [2] were under 1 µM and under 10 µM, respectively.

`CC(C)c1ccc(S(=O)(=O)C/C(F)=C/CN)nc1` [Compound 34, (Z)-3-fluoro-4-(5-isopropylpyridin-2-ylsulfonyl)but-2-en-1-amine dihydrochloride]: the IC50 was under 1 µM in assay [1] and under 10 µM in assay [2]. Taken in the same sequence, the figures for `Cc1ccc(S(=O)(=O)C/C(F)=C/CN)nc1` [Compound 35, (Z)-3-fluoro-4-(5-methylpyridin-2-ylsulfonyl)but-2-en-1-amine dihydrochloride] were under 1 µM and under 10 µM. Taken in the same sequence, the figures for `Cc1cccc(S(=O)(=O)C/C(F)=C/CN)n1` [Compound 36, (Z)-3-fluoro-4-(6-methylpyridin-2-ylsulfonyl)but-2-en-1-amine dihydrochloride] were under 1 µM and under 10 µM. Turning to `NC/C=C(\F)CS(=O)(=O)c1ccccc1F` [Compound 37, (Z)-3-fluoro-4-(2-fluorophenylsulfonyl)but-2-en-1-amine hydrochloride], the IC50 in assay [1] was under 1 µM; in assay [2], under 10 µM. Regarding `NC/C=C(\F)CS(=O)(=O)c1ccc(F)cc1` [Compound 39, (Z)-3-fluoro-4-(4-fluorophenylsulfonyl)but-2-en-1-amine hydrochloride], the IC50 in assay [1] was under 1 µM; in assay [2], under 10 µM.

Consider `Cc1ccccc1S(=O)(=O)C/C(F)=C/CN` [Compound 40, (Z)-3-fluoro-4-(o-tolylsulfonyl)but-2-en-1-amine hydrochloride], for which the figures for the IC50 in assay [1] and in assay [2] were under 1 µM and under 10 µM, respectively. Taken in the same sequence, the figures for `Cc1cccc(S(=O)(=O)C/C(F)=C/CN)c1` [Compound 41, (Z)-3-fluoro-4-(m-tolylsulfonyl)but-2-en-1-amine hydrochloride] were under 1 µM and under 10 µM.

Turning to `Cc1ccc(S(=O)(=O)C/C(F)=C/CN)cc1` [Compound 42, (Z)-3-fluoro-4-(p-tolylsulfonyl)but-2-en-1-amine hydrochloride], the IC50 is under 1 µM in assay [1] and under 10 µM in assay [2]. `Cc1cccnc1S(=O)(=O)C/C(F)=C/CN` [Compound 43, (Z)-3-fluoro-4-(3-methylpyridin-2-ylsulfonyl)but-2-en-1-amine dihydrochloride]: the results for the IC50 in assay [1] and in assay [2] were under 1 µM and under 10 µM, respectively. The like results for `Cc1cc(S(=O)(=O)C/C(F)=C/CN)ccn1` [Compound 44, (Z)-3-fluoro-4-(2-methylpyridin-4-ylsulfonyl)but-2-en-1-amine dihydrochloride] were, in that order, under 1 µM and under 10 µM. Taken in the same sequence, the figures for `Cc1ncccc1S(=O)(=O)C/C(F)=C/CN` [Compound 47, (Z)-3-fluoro-4-(2-methylpyridin-3-ylsulfonyl)but-2-en-1-amine dihydrochloride] were under 1 µM and under 10 µM. On to `Cc1ccncc1S(=O)(=O)C/C(F)=C/CN` [Compound 48, (Z)-3-fluoro-4-(4-methylpyridin-3-ylsulfonyl)but-2-en-1-amine dihydrochloride], for which the IC50 was under 1 µM in assay [1] and under 10 µM in assay [2]. Taken in the same sequence, the figures for `CC(C)c1ccc(S(=O)(=O)C/C(F)=C/CN)cn1` [Compound 49, (Z)-3-fluoro-4-(6-isopropylpyridin-3-ylsulfonyl)but-2-en-1-amine dihydrochloride] were under 1 µM and under 10 µM. Taken in the same sequence, the figures for `Cc1[nH]c2c(S(=O)(=O)C/C(F)=C/CN)cccc2c1C` [Compound 52, (Z)-4-((2,3-dimethyl-1H-indol-7-yl)sulfonyl)-3-fluorobut-2-en-1-amine hydrochloride] were under 1 µM and under 10 µM. Turning to `[2H]c1nc2c(S(=O)(=O)C/C(F)=C/CN)c([2H])c([2H])c([2H])c2c([2H])c1[2H]` [Compound 53, (Z)-3-fluoro-4-((quinolin-8-yl-d6)sulfonyl)but-2-en-1-amine dihydrochloride], the IC50 in assay [3] was over 30 µM.
